In ChEMBL document CHEMBL5120900, “Structure-Based Discovery of a Series of NSD2-PWWP1 Inhibitors” (J Med Chem, 2022):
Calls of active or inactive are those of the source. The calls are words filed in the database; no cut-off is given here.

Key:
[1] = biological target: T1, Histone-lysine N-methyltransferase NSD2 (Homo sapiens, UniProt O96028); assay: Binding affinity to N-terminal His6/Sumo-tagged NSD2 PWWP1 domain (211 to 350 residues) (unknown origin) expressed in Escherichia coli BL21 (DE3) using ATKAARKSAPATGGV-Lys (me)2-KPHRYRPG polypeptide as substrate incubated for 3 hrs by HTRF assay
T1 sequence (O96028 whole entry): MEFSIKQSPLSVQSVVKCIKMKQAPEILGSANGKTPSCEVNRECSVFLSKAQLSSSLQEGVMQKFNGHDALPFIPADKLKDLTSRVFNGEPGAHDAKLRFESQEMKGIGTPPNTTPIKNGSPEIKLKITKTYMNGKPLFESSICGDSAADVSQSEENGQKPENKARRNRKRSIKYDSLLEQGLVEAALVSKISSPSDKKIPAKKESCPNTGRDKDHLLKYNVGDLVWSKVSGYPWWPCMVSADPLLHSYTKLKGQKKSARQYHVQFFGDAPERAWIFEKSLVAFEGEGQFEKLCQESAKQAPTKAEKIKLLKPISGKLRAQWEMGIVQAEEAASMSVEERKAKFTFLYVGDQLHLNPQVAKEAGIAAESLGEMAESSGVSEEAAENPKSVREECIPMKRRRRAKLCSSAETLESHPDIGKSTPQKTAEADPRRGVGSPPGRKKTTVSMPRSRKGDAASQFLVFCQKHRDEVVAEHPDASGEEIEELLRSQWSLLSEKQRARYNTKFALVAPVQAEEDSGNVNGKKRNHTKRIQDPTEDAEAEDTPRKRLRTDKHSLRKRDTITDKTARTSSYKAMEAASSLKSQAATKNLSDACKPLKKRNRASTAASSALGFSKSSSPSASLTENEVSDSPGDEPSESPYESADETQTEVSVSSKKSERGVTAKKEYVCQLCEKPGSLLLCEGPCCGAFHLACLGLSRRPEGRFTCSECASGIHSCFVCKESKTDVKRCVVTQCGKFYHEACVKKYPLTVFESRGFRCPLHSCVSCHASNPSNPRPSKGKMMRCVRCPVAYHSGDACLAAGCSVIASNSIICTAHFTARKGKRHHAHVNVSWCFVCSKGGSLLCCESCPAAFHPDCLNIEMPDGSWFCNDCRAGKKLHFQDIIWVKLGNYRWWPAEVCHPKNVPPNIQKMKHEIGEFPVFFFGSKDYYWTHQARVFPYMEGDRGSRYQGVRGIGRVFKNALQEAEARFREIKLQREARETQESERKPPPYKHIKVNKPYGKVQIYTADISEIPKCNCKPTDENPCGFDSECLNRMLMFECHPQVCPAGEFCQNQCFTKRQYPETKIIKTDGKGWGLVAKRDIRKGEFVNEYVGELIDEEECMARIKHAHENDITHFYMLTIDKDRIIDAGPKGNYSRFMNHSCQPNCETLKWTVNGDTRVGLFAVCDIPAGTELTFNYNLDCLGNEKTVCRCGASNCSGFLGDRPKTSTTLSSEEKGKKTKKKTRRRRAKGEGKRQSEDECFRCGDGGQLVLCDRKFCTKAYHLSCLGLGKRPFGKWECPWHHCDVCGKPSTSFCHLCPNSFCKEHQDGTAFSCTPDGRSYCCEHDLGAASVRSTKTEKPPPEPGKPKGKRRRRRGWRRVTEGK

[2] = biological target: T2, Histone-lysine N-methyltransferase NSD2 (Homo sapiens) (UniProt O96028); assay: Binding affinity to His6/Sumo-tagged NSD2 PWWP1 (unknown origin) (208 to 368 residues) expressed in Escherichia coli BL21 (DE3) assessed as increase in melting temperature by thermal shift assay; settings: DDE = dose-dependent effect
T2 sequence (whole entry): T1 sequence (O96028 whole entry)

[3] = biological target: T2, Histone-lysine N-methyltransferase NSD2 (Homo sapiens); assay: Inhibition of NSD2 in human RS4-11 cells assessed as decrease in PAK1 gene expression at 10 uM incubated for 72 hrs by RT-PCR analysis; format: cell-based
[4] = biological target: T2, Histone-lysine N-methyltransferase NSD2 (Homo sapiens); assay: Inhibition of NSD2 in human KMS-11 cells assessed as decrease in RRAS2 gene expression at 10 uM incubated for 72 hrs by RT-PCR analysis; format: cell-based
[5] = biological target: T2, Histone-lysine N-methyltransferase NSD2 (Homo sapiens); assay: Inhibition of NSD2 in human KMS-11 cells assessed as decrease in TGFA gene expression at 10 uM incubated for 72 hrs by RT-PCR analysis; format: cell-based
[6] = biological target: T2, Histone-lysine N-methyltransferase NSD2 (Homo sapiens); assay: Inhibition of NSD2 in human KMS-11 cells assessed as decrease in TEMEL2 gene expression at 10 uM incubated for 72 hrs by RT-PCR analysis; format: cell-based
[7] = biological target: T2, Histone-lysine N-methyltransferase NSD2 (Homo sapiens); assay: Inhibition of NSD2 in human RS4-11 cells assessed as decrease in TEMEL2 gene expression at 10 uM incubated for 72 hrs by RT-PCR analysis; format: cell-based
[8] = biological target: T2, Histone-lysine N-methyltransferase NSD2 (Homo sapiens); assay: Inhibition of NSD2 in human KMS-11 cells assessed as decrease in NCAM1 gene expression at 10 uM incubated for 72 hrs by RT-PCR analysis; format: cell-based
[9] = biological target: T2, Histone-lysine N-methyltransferase NSD2 (Homo sapiens); assay: Inhibition of NSD2 in human RS4-11 cells assessed as decrease in NCAM1 gene expression at 10 uM incubated for 72 hrs by RT-PCR analysis; format: cell-based
MM1.S = assay: Antiproliferative activity against human MM1.S cells assessed as inhibition of cell proliferation measured after 6 days by CCK8 assay; format: functional, cell-based; settings: 144 h
KMS-11 [10] = assay: Induction of apoptosis in human KMS-11 cells assessed as viable cells at 5 uM measured after 72 hrs by Annexin V FITC/PI staining based flow cytometry analysis (reference value: 69.4%); format: functional; settings: read-out: Activity
KMS-11 [11] = assay: Induction of apoptosis in human KMS-11 cells assessed as necrotic cells at 5 uM measured after 72 hrs by Annexin V FITC/PI staining based flow cytometry analysis (reference value: 0.88%); format: functional
KMS-11 [12] = assay: Induction of apoptosis in human KMS-11 cells assessed as late apoptotic cells at 10 uM measured after 72 hrs by Annexin V FITC/PI staining based flow cytometry analysis (reference value: 13.3 %); format: functional
KMS-11 [13] = assay: Induction of apoptosis in human KMS-11 cells assessed as necrotic cells at 10 uM measured after 72 hrs by Annexin V FITC/PI staining based flow cytometry analysis (reference value: 0.88%); format: functional
MV4-11 [14] = assay: Induction of apoptosis in human MV4-11 cells assessed as early apoptotic cells at 5 uM measured after 72 hrs by Annexin V FITC/PI staining based flow cytometry analysis (reference value: 4.58 %); format: functional
MV4-11 [15] = assay: Induction of apoptosis in human MV4-11 cells assessed as necrotic cells at 5 uM measured after 72 hrs by Annexin V FITC/PI staining based flow cytometry analysis (reference value: […]); format: functional
MV4-11 [16] = assay: Induction of apoptosis in human MV4-11 cells assessed as viable cells at 10 uM measured after 72 hrs by Annexin V FITC/PI staining based flow cytometry analysis (reference value: 91.7%); format: functional; settings: read-out: Activity
MV4-11 [17] = assay: Induction of apoptosis in human MV4-11 cells assessed as early apoptotic cells at 10 uM measured after 72 hrs by Annexin V FITC/PI staining based flow cytometry analysis (reference value: 4.58 %); format: functional
MV4-11 [18] = assay: Induction of apoptosis in human MV4-11 cells assessed as late apoptotic cells at 10 uM measured after 72 hrs by Annexin V FITC/PI staining based flow cytometry analysis (reference value: 3.02%); format: functional

IC50 [1]: 0.11 µM
Activity [2]: Dde
inhibition [3]: Active
inhibition [4]: Active
inhibition [5]: Active
inhibition [6]: Active
inhibition [7]: Active
inhibition [8]: Active
inhibition [9]: Active
IC50 (MM1.S): 11 µM
Compound: Cc1cc(CN2CCC(N)CC2)cc(C)c1-c1ncn(C)c1-c1ccc(C#N)c2ccccc12
viability at 5 µM (KMS-11 [10]): 61.7%
Activity (KMS-11 [11]): 0.69%
Activity (KMS-11 [12]): 32.7%
Activity (KMS-11 [13]): 1.86%
Activity (MV4-11 [14]): 6.26%
Activity (MV4-11 [15]): 0.4%
viability at 10 µM (MV4-11 [16]): 37.3%
Activity (MV4-11 [17]): 41.3%
Activity (MV4-11 [18]): 19.8%
